{"source": "ChEMBL document CHEMBL1201862", "about": "“PubChem BioAssay data set” (2004)", "key": {"[1]": {"molecular_target": "T1, Polyadenylate-binding protein 1 (Homo sapiens, UniProt P11940)", "T1 sequence (P11940 whole entry)": "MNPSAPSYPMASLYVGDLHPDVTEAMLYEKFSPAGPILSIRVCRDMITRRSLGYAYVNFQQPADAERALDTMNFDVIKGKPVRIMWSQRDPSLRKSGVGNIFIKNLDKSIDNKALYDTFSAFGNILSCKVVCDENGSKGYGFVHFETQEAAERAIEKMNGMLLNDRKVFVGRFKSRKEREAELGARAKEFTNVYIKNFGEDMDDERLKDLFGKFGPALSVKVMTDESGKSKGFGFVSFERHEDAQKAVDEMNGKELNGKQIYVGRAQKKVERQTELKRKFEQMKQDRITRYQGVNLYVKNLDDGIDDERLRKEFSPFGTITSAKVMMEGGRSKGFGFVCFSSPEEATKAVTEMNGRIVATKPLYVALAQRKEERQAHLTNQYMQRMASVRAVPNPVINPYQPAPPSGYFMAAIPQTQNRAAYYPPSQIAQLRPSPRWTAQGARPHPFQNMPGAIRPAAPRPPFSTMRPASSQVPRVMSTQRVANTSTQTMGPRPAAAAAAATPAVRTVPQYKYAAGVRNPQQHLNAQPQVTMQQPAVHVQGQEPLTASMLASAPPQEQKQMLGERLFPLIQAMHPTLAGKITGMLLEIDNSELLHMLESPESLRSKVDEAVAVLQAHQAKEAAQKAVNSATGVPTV", "experiment": "PABP inhibition in translation initiation, SAR follow-up (AID 435018)", "assay_type": "functional"}, "[2]": {"molecular_target": "T2, Eukaryotic translation initiation factor 4H (Homo sapiens, UniProt Q15056)", "experiment": "human eIF4H binding inhibitors, primary screen, translation initiation inhibitor project, biochemical, uHTS, fluorescence polarization (AID 2012)"}, "[3]": {"molecular_target": "T2, Eukaryotic translation initiation factor 4H", "experiment": "eIF4H inhibition in translation initiation, SAR follow-up (AID 435011)", "assay_type": "functional"}, "[4]": {"molecular_target": "T1, Polyadenylate-binding protein 1", "experiment": "PABP poly(A) RNA binding inhibitors, primary screen, biochemical, fluorescence polarization, uHTS (AID 2014)"}, "HEK293": {"test_system": "HEK293", "experiment": "cells", "details": "Homo sapiens"}, "Interleukin-8": {"molecular_target": "Interleukin-8 (Homo sapiens, UniProt P10145)", "sequence (P10145 whole entry)": "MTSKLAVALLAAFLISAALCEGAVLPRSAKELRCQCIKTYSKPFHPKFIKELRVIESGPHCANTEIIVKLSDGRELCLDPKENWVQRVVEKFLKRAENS", "experiment": "SAR analysis of tumor necrosis factor alpha (TNF-alpha) induced IL-8 secretion in MCF-7/NOD1 cells. [Related pubchem assays (depositor defined):AID1575, AID2250, AID2260]", "assay_type": "functional, cell-based"}, "Tumor necrosis factor": {"molecular_target": "Tumor necrosis factor (Homo sapiens, UniProt P01375)", "sequence (P01375 whole entry)": "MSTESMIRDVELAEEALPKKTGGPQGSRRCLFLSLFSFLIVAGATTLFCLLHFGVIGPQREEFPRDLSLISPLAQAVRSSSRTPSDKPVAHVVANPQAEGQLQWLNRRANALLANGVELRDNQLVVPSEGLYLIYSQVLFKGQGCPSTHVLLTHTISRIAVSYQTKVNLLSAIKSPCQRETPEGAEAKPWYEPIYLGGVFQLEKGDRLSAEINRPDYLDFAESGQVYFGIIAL", "experiment": "TNFa-triggered NF-kB activation inhibitors, SAR follow-up, cell-based, revised (AID 2337)", "assay_type": "functional"}, "Staphylococcus aureus": {"test_system": "Staphylococcus aureus", "experiment": "Inhibitors of Bacterial Quorum Sensing Structure Activity Relationship (SAR) Analysis: Dose Response Assay. [Related pubchem assays: 700, 527 ]", "assay_type": "functional, organism-based"}, "[5]": {"molecular_target": "T3, Neuropeptides B/W receptor type 1 (Homo sapiens, UniProt P48145)", "T3 sequence (P48145 whole entry)": "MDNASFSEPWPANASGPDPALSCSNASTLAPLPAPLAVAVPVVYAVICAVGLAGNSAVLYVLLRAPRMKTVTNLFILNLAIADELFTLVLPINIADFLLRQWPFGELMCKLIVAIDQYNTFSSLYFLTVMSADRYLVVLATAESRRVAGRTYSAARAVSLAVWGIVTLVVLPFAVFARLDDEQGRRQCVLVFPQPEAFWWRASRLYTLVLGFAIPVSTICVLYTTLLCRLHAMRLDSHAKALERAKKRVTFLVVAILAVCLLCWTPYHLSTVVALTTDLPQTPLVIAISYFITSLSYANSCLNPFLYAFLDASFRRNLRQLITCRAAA", "experiment": "Fluorescence-based dose response cell-based high throughput screening assay to identify antagonists of the G-protein coupled receptor 7 (GPR7). [Related pubchem assays: 1952 (Screening assay (GPR7 antagonists).), 1880 (Summary AID.)]", "assay_type": "functional"}, "[6]": {"molecular_target": "Melanin-concentrating hormone receptor 1 (Homo sapiens, UniProt Q99705)", "sequence (Q99705 whole entry)": "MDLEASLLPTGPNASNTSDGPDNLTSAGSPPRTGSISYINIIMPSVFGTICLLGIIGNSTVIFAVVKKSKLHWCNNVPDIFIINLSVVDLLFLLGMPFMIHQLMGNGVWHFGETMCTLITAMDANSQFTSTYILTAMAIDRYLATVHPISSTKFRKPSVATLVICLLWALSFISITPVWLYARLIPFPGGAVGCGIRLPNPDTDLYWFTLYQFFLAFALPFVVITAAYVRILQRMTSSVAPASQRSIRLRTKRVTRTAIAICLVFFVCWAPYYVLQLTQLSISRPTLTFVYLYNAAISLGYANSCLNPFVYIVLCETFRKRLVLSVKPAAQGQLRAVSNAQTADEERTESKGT", "experiment": "Fluorescence-based counterscreen for antagonists of the G-protein coupled receptor 7 (GPR7): cell-based high throughput dose response assay to identify antagonists of the melanin-concentrating hormone receptor 1 (MCHR1).", "assay_type": "functional"}}, "note": "Activity calls are given as the source filed them. Rule as the data show it, for most assays here: actives have a measured IC50 and inactives only a lower limit."}
{"smiles": "Cc1ccc(OC(C)C(=O)Nc2ccc3c(c2)n(C)c(=O)n3C)c(C)c1", "note": "(stereo not given)", "values": [{"measurement": "IC50", "setting": "[1]", "result": "4.39 µM (active)"}, {"measurement": "IC50", "setting": "[2]", "result": "> 100 µM (inactive)"}, {"measurement": "IC50", "setting": "[3]", "result": "35 µM (active)"}, {"measurement": "IC50", "setting": "[4]", "result": "16.2 µM (active)"}]}
{"smiles": "Cc1ccc(S(=O)(=O)n2cnc3ccccc32)cc1", "values": [{"measurement": "IC50", "setting": "HEK293", "result": "> 20 µM (inactive)"}, {"measurement": "IC50", "setting": "Interleukin-8", "result": "> 5 µM (inactive)"}, {"measurement": "IC50", "setting": "Tumor necrosis factor", "result": "> 20 µM (inactive)"}]}
{"smiles": "O=C(O)c1ccccc1Nc1cccc2c1C(=O)c1ccccc1C2=O", "values": [{"measurement": "IC50", "setting": "Staphylococcus aureus", "result": "1.05 µM (active)"}]}
{"smiles": "COC(=O)C(O)(c1ccc(N(C)C(=O)c2ccc(Cl)c(Cl)c2)cc1)C(F)(F)F", "note": "(stereo not given)", "values": [{"measurement": "IC50", "setting": "[5]", "result": "> 14.6 µM (not active)"}, {"measurement": "IC50", "setting": "[6]", "result": "15 µM (not active)"}]}
